Tested on: Scleraxis (Scx) gene transcriptional activation in TT-D6 Scx-luciferase (ScxL) cell line
Assay: SCX-LUC in vitro assay (Scx-luciferase reporter)
Format: cell-based
Details: Mus musculus, 96 h; Table 3; four days; read-out: Scx-Luc (EC50 μM)

Row | EC50 [µM] | SMILES
1 | 3.05 | Cc1cc(S(=O)(=O)N[C@@H]2CCC[C@H]2O)ccc1-c1ccc2[nH]nc(N)c2c1C [Example 15, 4-(3-amino-4-methyl-1H-indazol-5-yl)-N-((1R,2R)-2-hydroxycyclopentyl)-3-methylbenzenesulfonamide]
2 | 1.22 | COc1c(-c2ccc(S(=O)(=O)N[C@H]3C[C@](O)(C(F)(F)F)C3)cc2Cl)ccc2[nH]nc(N)c12 [Example 65, 4-(3-amino-4-methoxy-1H-indazol-5-yl)-3-chloro-N-((1s,3s)-3-hydroxy-3-(trifluoromethyl)cyclobutyl)benzenesulfonamide]
3 | 0.752 | Cc1cc(S(=O)(=O)N[C@H]2C[C@@H](O)C2)ccc1-c1ccc2[nH]nc(N)c2c1Cl [Example 30, 4-(3-amino-4-chloro-1H-indazol-5-yl)-N-((1s,3s)-3-hydroxycyclobutyl)-3-methylbenzenesulfonamide]
4 | 0.731 | COc1c(-c2ccc(S(=O)(=O)N3CC(F)(F)C[C@H]3CO)cc2Cl)ccc2[nH]nc(N)c12 [Example 86, (S)-(1-((4-(3-amino-4-methoxy-1H-indazol-5-yl)-3-chlorophenyl)sulfonyl)-4,4-difluoropyrrolidin-2-yl)methanol]
5 | 0.282 | COc1c(-c2ccc(S(=O)(=O)NC3CC(O)(C(F)(F)F)C3)cc2C)ccc2[nH]nc(N)c12 (stereo not shown) [Example 70, 4-(3-amino-4-methoxy-1H-indazol-5-yl)-N-((1s,3s)-3-hydroxy-3-(trifluoromethyl)cyclobutyl)-3-methylbenzenesulfonamide]
6 | 0.535 | Nc1n[nH]c2ccc(-c3ccc(S(=O)(=O)NC4CC(F)(F)C4)cc3Cl)c(Cl)c12 [Example 67, 4-(3-amino-4-chloro-1H-indazol-5-yl)-3-chloro-N-(3,3-difluorocyclobutyl)benzenesulfonamide]
7 | 0.764 | Cc1c(-c2ccc(S(=O)(=O)N3CC(F)(F)C[C@H]3CO)cc2Cl)ccc2[nH]nc(N)c12 [Example 56, (S)-(1-((4-(3-amino-4-methyl-1H-indazol-5-yl)-3-chlorophenyl)sulfonyl)-4,4-difluoropyrrolidin-2-yl)methanol]
8 | 4.41 | Nc1n[nH]c2ccc(-c3ccc(S(=O)(=O)N4CC[C@@H](O)C4)cc3F)c(Cl)c12 [Example 6, (R)-1-((4-(3-amino-4-chloro-1H-indazol-5-yl)-3-fluorophenyl)sulfonyl)pyrrolidin-3-ol]
9 | 4.96 | Cc1cc(S(=O)(=O)N[C@H]2C[C@H](O)C2)ccc1-c1ccc2[nH]nc(N)c2c1C [Example 9, 4-(3-amino-4-methyl-1H-indazol-5-yl)-N-((1r,3r)-3-hydroxycyclobutyl)-3-methylbenzenesulfonamide]
10 | 0.286 | COc1c(-c2ccc(S(=O)(=O)N[C@@H]3CCC[C@@H]3O)cc2Cl)ccc2[nH]nc(N)c12 [Example 74]
11 | 1.01 | Cc1cc(S(=O)(=O)N2C[C@@H](F)C[C@H]2CO)ccc1-c1ccc2[nH]nc(N)c2c1C [Example 92, ((2S,4S)-1-((4-(3-amino-4-methyl-1H-indazol-5-yl)-3-methylphenyl)sulfonyl)-4-fluoropyrrolidin-2-yl)methanol]
12 | 1.33 | Cc1cc(S(=O)(=O)N[C@H]2CCC[C@]2(C)O)ccc1-c1ccc2[nH]nc(N)c2c1C [Example 58, 4-(3-amino-4-methyl-1H-indazol-5-yl)-N-((1S,2S)-2-hydroxy-2-methylcyclopentyl)-3-methylbenzenesulfonamide]
13 | 0.854 | Cc1cc(S(=O)(=O)N[C@H]2CCC[C@H]2O)ccc1-c1ccc2[nH]nc(N)c2c1C [Example 48, 4-(3-amino-4-methyl-1H-indazol-5-yl)-N-((1S,2R)-2-hydroxycyclopentyl)-3-methylbenzenesulfonamide]
14 | 1.61 | Cc1cc(S(=O)(=O)N2CCC[C@H]2C(C)O)ccc1-c1ccc2[nH]nc(N)c2c1C (stereo partly drawn) [Example 60, 1-((S)-1-((4-(3-amino-4-methyl-1H-indazol-5-yl)-3-methylphenyl)sulfonyl)pyrrolidin-2-yl)ethan-1-ol]
15 | 1.86 | Cc1c(-c2ccc(S(=O)(=O)NC3CC(F)(F)C3)cc2Cl)ccc2[nH]nc(N)c12 [Example 68, 4-(3-amino-4-methyl-1H-indazol-5-yl)-3-chloro-N-(3,3-difluorocyclobutyl)benzenesulfonamide]
16 | 1.33 | COc1c(-c2ccc(S(=O)(=O)N3CC(F)(F)C[C@H]3CO)cc2F)ccc2[nH]nc(N)c12 [Example 41, (S)-(1-((4-(3-amino-4-methoxy-1H-indazol-5-yl)-3-fluorophenyl)sulfonyl)-4,4-difluoropyrrolidin-2-yl)methanol]
17 | 2.71 | Cc1cc(S(=O)(=O)N2CCC(C)(O)C2)ccc1-c1ccc2[nH]nc(N)c2c1C (stereo not shown) [Example 57, 1-((4-(3-amino-4-methyl-1H-indazol-5-yl)-3-methylphenyl)sulfonyl)-3-methylpyrrolidin-3-ol]
18 | 0.177 | Nc1n[nH]c2ccc(-c3ccc(S(=O)(=O)NC4CC(O)(C(F)(F)F)C4)cc3Cl)c(F)c12 (stereo not shown) [Example 72, 4-(3-amino-4-fluoro-1H-indazol-5-yl)-3-chloro-N-((1s,3s)-3-hydroxy-3-(trifluoromethyl)cyclobutyl)benzenesulfonamide]
19 | 0.467 | Cc1cc(S(=O)(=O)N(C)C2CC(O)(C(F)(F)F)C2)ccc1-c1ccc2[nH]nc(N)c2c1C (stereo not shown) [Example 83, 4-(3-amino-4-methyl-1H-indazol-5-yl)-N-((1s,3s)-3-hydroxy-3-(trifluoromethyl)cyclobutyl)-N,3-dimethylbenzenesulfonamide]
20 | 1.19 | Cc1cc(S(=O)(=O)N2CC(F)(F)C[C@H]2CO)ccc1-c1ccc2[nH]nc(N)c2c1F [Example 44, (S)-(1-((4-(3-amino-4-fluoro-1H-indazol-5-yl)-3-methylphenyl)sulfonyl)-4,4-difluoropyrrolidin-2-yl)methanol]
21 | 2.83 | Cc1c(-c2ccc(S(=O)(=O)N3CCC(O)C3)cc2F)ccc2[nH]nc(N)c12 (stereo not shown) [Example 3, 1-((4-(3-amino-4-methyl-1H-indazol-5-yl)-3-fluorophenyl)sulfonyl)pyrrolidin-3-ol]
22 | 0.63 | Cc1cc(S(=O)(=O)N2CCC(O)(C(F)(F)F)C2)ccc1-c1ccc2[nH]nc(N)c2c1C (stereo not shown) [Example 62, 1-((4-(3-amino-4-methyl-1H-indazol-5-yl)-3-methylphenyl)sulfonyl)-3-(trifluoromethyl)pyrrolidin-3-ol]
23 | 0.879 | Cc1cc(S(=O)(=O)N2CC(C#N)C2)ccc1-c1ccc2[nH]nc(N)c2c1C [Example 22, 1-((4-(3-amino-4-methyl-1H-indazol-5-yl)-3-methylphenyl)sulfonyl)azetidine-3-carbonitrile]
24 | 0.288 | Cc1cc(S(=O)(=O)N2C[C@H](F)C[C@H]2CO)ccc1-c1ccc2[nH]nc(N)c2c1C [Example 87, ((2S,4R)-1-((4-(3-amino-4-methyl-1H-indazol-5-yl)-3-methylphenyl)sulfonyl)-4-fluoropyrrolidin-2-yl)methanol]
25 | 1.79 | COc1c(-c2ccc(S(=O)(=O)N3CC(F)(F)C[C@H]3CO)cc2C)ccc2[nH]nc(N)c12 [Example 85, (S)-(1-((4-(3-amino-4-methoxy-1H-indazol-5-yl)-3-methylphenyl)sulfonyl)-4,4-difluoropyrrolidin-2-yl)methanol]
